Patent US20020013478A1, “Calanolide analogues and methods of their use” (Sarawak Medichem Pharmaceuticals,Inc., priority 1994, published 2002)
In brackets after ≈: the same amount, converted by molar mass. Read-outs that look alike come from different tables or passages of the source.

What was measured:
[1] = tested on: human foreskin fibroblast cells; test: Toxicity run with the HCMV assay, human foreskin fibroblast cells; format: cell-based; conditions: Table II
Summary of the method: (§1)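 Human foreskin fibroblasts exposed to drug at 37 °C in CO2, either 72 h followed by Coulter Counter counts (triplicate counts, three replicate wells), or seven days followed by dye staining for 1 h and optical density at 550 nm.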

EBV = EBV assay: superinfection of Raji or Daudi cells with P3HR-1, immunofluorescence for EA and VCA; format: cell-based, Epstein-Barr virus
Summary of the method: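 Raji cells (Burkitt's lymphoma, 60 EBV genomes/cell) or Daudi cells were superinfected with P3HR-1 EBV, and drugs were added after 45 min adsorption at 37 °C and washing. After 48 h, smears were stained with monoclonal antibodies to EA components and VCA plus fluorescein anti-mouse Ig. Fluorescence-positive cells were counted to give total EA- or VCA-positive cells per culture.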

HBV = HBV replication in cultures of 2.2.15 cells, extracellular HBV virion DNA (primary assay); conditions: for EC50: read-out: HBV EC50
Experimental: Both intracellular and extracellular HBV DNA are analyzed in order to (i) allow for verification of compound efficacy and (ii) provide possible data on the target site in the HBV replication pathway for the compound from examination of the pattern of viral replicative forms. The culture medium is changed daily during the treatment period to (i) prevent the buildup of potentially toxic metabolites derived from test compounds and (ii) provide an analysis of HBV virion production during discrete 24-hour intervals which enables a quantitative comparison of any effect on virion production.
The analysis of HBV DNA is performed using blot hybridization techniques (Southern and slot blot) and [^32P]-labeled HBV-specific probes. HBV DNA levels are measured by comparison to known amounts of HBV DNA standards applied to every nitrocellulose membrane (gel or slot blot). An AMBIS beta scanner, which measures the radioactive decay of the hybridized probes directly from the nitrocellulose membranes, is used for the quantitative analysis. Standard curves, generated by multiple analyses, are used to correlate CPM measurements made by the beta scanner with relative levels of target HBV DNA. The levels of HBV virion DNA released into the culture medium are analyzed by a slot blot hybridization procedure.

[2] = tested on: human foreskin fibroblast cells; test: Toxicity run with the VZV assay, human foreskin fibroblast cells; format: cell-based; conditions: Table II
Summary of the method: as §1

[3] = tested on: African green monkey kidney (BSC-1) cells; test: Cytotoxicity run with the measles assay
Text: Virus strain: CC (Source: Pennsylvania State University) Cell line: African green monkey kidney (BSC-1) cells.

HCMV = HCMV semi-automated CPE-inhibition assay in human foreskin fibroblast cells; format: cell-based, human cytomegalovirus
measles = test: Measles virus inhibition of viral CPE in BSC-1 cells; format: cell-based; conditions: for EC50: Table II footnote g, read-out: Others EC50, against measles
VZV = VZV plaque reduction assay in human foreskin fibroblast cells; format: cell-based, varicella zoster virus; conditions: Table II
Summary of the method: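 VZV at 20-30 plaques/well adsorbed 1 h onto HFF monolayers, then 0.5% agarose overlay holding drug at final 100 down to 0.03 μg/mL (1:5 steps), duplicates. Incubation 10 days, extra MEM/agarose overlay on days 3 and 6; neutral red staining, plaques counted.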

[4] = tested on: human foreskin fibroblast cells; test: Cell viability in the CMV plaque reduction assay (MTC); format: cell-based
Text: Five calanolide analogues, prepared as described above, were further evaluated for their anti-HCMV activity in plaque reduction assay against various laboratory and clinical isolates (Towne, AD 169, E. Mann, Coffinan, and C9208).

SMILES: CCCc1cc(=O)oc2c3c(c4c(c12)OC(C)(C)C=C4)O[C@H](C)[C@@H](C)C3=O [(+)-7, 10(R),11(R)-trans-Dihydro6,6,10,11-tetramethyl-4-propyl-2H,6H,12H-benzo [1,2-b:3,4-b′:5,6-b″]tripyran-2,12-dione]
- IC50 ([1]; Homo sapiens, Fibroblast): 47.9 µg/mL (≈ 130 µM)
- EC50 (EBV; human gammaherpesvirus 4, Table II): 0.94 µg/mL (≈ 2.55 µM)
- potency against EBV (EBV; text summary of Table II): very potent
- EC50 (HBV; Hepatitis B virus): 7.2 µM
- potency against HBV (HBV; text summary of Table II): potent
- IC50 ([2]; Homo sapiens, Fibroblast): > 100 µg/mL
- IC50 ([3]; Chlorocebus sabaeus, BSC-1, read-out: Others IC50, against measles): 10 µM
- EC50 (HCMV; Human betaherpesvirus 5, Fibroblast, Table II): 0.11 µg/mL (≈ 0.299 µM)
- potency against HCMV (HCMV; text summary of Table II): very potent
- EC50 (measles; Measles morbillivirus, BSC-1): 3 µM
- potency against measles (measles; text summary of Table II): potent
- Maximum Protection (%) (HIV-1; CEM-SS MTT assay): 90%
- protecting cells against HIV infection (HIV-1; text summary of Table I): highly efficacious
- EC50 (VZV; Human alphaherpesvirus 3, Fibroblast): 55.9 µg/mL (≈ 152 µM)
- MTC (minimum drug concentration that reduced cell viability by 25%) ([4]; isolate AD169): 100 µM
- MTC (minimum drug concentration that reduced cell viability by 25%) ([4]; isolate C9208): >100 µM
- MTC (minimum drug concentration that reduced cell viability by 25%) ([4]; isolate Coffman): >100 µM
- MTC (minimum drug concentration that reduced cell viability by 25%) ([4]; isolate E. Mann): 100 µM
- MTC (minimum drug concentration that reduced cell viability by 25%) ([4]; isolate Towne): >100 µM

SMILES: CCCc1cc(=O)oc2c3c(c4c(c12)OC(C)(C)C=C4)OC(C)C(C)C3=O (racemic) [(±)-7a]
- HCMV IC50 [1]: 19.8 µg/mL
- EBV EC50 (EBV; Table II): >50 µg/mL
- EC50 (HBV; Table II): 44 µM
- VZV IC50 [2]: 33.3 µg/mL
- IC50 ([3]; read-out: Others IC50, against measles, Table II footnote g): 333 µM
- HCMV EC50 (HCMV; Table II): 0.15 µg/mL
- EC50 (measles): 13.7 µM
- EC50 (HIV-1; CEM-SS MTT assay): 2.82 µM
- Maximum Protection (%) (HIV-1; CEM-SS MTT assay): 55%
- VZV EC50 (VZV): 13.7 µg/mL
- MTC (minimum drug concentration that reduced cell viability by 25%) [4]: 10 µM
